According to article PMC7922564, “Molecular Insights into an Antibiotic Enhancer Action of New Morpholine-Containing 5-Arylideneimidazolones in the Fight against MDR Bacteria” (International Journal of Molecular Sciences, 2021):
Read-outs that look alike come from different tables or passages of the source.

How the values were obtained:
[1] = test system: K. aerogenes Ea-289 (overexpression of AcrAB-TolC); experiment: MIC of compounds, K. aerogenes Ea-289; format: cell-based; settings: Klebsiella aerogenes
Description: At first, MIC values of compounds were determined (Table S15, Supplementary). Next, their abilities to reduce MICs of the AcrAB-TolC substrates doxycycline (a tetracycline-class antibiotic) and erythromycin were studied (Table S16, Supplementary). […]
(§1) Determination of MIC values, i.e., intrinsic antibacterial activity, of products and antibiotics (oxacillin, ampicillin, vancomycin, ciprofloxacin, and erythromycin) in the presence and absence of compounds tested was conducted by the use of a standard 2-fold microdilution method in cation-adjusted Mueller Hinton broth following the Clinical and Laboratory Standards Institute (CLSI) guidelines. The MIC values were detected using an Infinite M200 pro Tecan microplate reader (Tecan® France, SA-Lyon, France). MIC determinations were conducted in 96-well microtiter plates and repeated 3–4 times.
(§2) MIC values of 5-arylideneimidazolone derivatives were determined following CLSI recommendations as in the methods described for S. aureus (Section 3.3.1).

S. aureus R45-CC45 = experiment: MIC of compounds, S. aureus R45-CC45; format: cell-based; settings: Staphylococcus aureus, read-out: MIC value of compounds
Description: (§3) Compounds 14–16 were tested further for their adjuvant-like effect with a set of ten additional S. aureus isolates. Firstly, MIC values of the molecules were evaluated in two clinical MSSA isolates (MM-O058, MM-N072), seven MRSA (USA300 LAC, 5328, LG-N017, MM-O021, R45-CC45, R46-CC22, COL) and one VISA strain (Mu50). Detailed results are presented in the Supplementary section (Table S3).
as §1
(§4) Initially, MICs of a series of imidazolone derivatives were assessed against susceptible (reference) and MDR strains of staphylococci. Next, MIC values of the aforementioned antibiotics were determined in the absence and presence of imidazolone derivatives to assess the chemosensitizing effect of these compounds. […] 5-arylideneimidazolones and 5-arylidenethiazolones, which precipitated after addition to bacterial suspension in MH II medium, were tested at the highest concentrations at which precipitation was not observed. […] Antibacterial activity of compounds and antibiotics ampicillin, vancomycin, ciprofloxacin, and erythromycin was recorded as the lowest concentration of molecules able to inhibit bacterial growth after 18 h incubation at 37 °C. […] The results are presented as activity gain (A) parameter which was calculated as ratio of MIC of a certain antibiotic (MICAnt) to its MICAnt+Comp, observed in combination with a tested compound (7, 12–16, 19, or 20; Equation (1)). […]

S. aureus MM-O021 = experiment: MIC reduction assay (antibiotic adjuvant), S. aureus MM-O021; format: cell-based, Staphylococcus aureus
Text: (§5) The adjuvant properties of compounds 14–16 in S. aureus clinical isolates were next tested in combination with oxacillin and the penicillinase-susceptible β-lactam antibiotic, ampicillin. The second β-lactam antibiotic was chosen based on its vulnerability to enzymatic hydrolysis, another important resistance mechanism in S. aureus against penicillin. Therefore, the results of the MIC reduction assay obtained on the activity of arylideneimidazolones combined with oxacillin and ampicillin, respectively, might provide further insights into the possible mechanism of action of the compounds. Complete results are presented in Supplementary (Tables S4 and S5), while condensed in Figure 6, in the case of desired activity noted. […] One possible explanation for the lack of adjuvant activity of compounds in some of the strains selected for this study might be that these strains express PBP2a only when induced by the antibiotic, while others, for which potentiating activity of compounds was observed, produce this protein in high levels straight away.
as §1
(§6) Initially, MICs of a series of imidazolone derivatives were assessed against susceptible (reference) and MDR strains of staphylococci. Next, MIC values of the aforementioned antibiotics were determined in the absence and presence of imidazolone derivatives to assess the chemosensitizing effect of these compounds. […] 5-arylideneimidazolones and 5-arylidenethiazolones, which precipitated after addition to bacterial suspension in MH II medium, were tested at the highest concentrations at which precipitation was not observed. […] Antibacterial activity of compounds and antibiotics ampicillin, vancomycin, ciprofloxacin, and erythromycin was recorded as the lowest concentration of molecules able to inhibit bacterial growth after 18 h incubation at 37 °C. The incubation of bacterial strains exposed to oxacillin paired with compounds tested was conducted at 35 °C and extended to 24 h due to frequent occurrence of heterogeneity among MRSA strains. The results are presented as activity gain (A) parameter which was calculated as ratio of MIC of a certain antibiotic (MICAnt) to its MICAnt+Comp, observed in combination with a tested compound (7, 12–16, 19, or 20; Equation (1)). (1) A=(MICAnt/MICAnt+Comp)

S. aureus COL = experiment: MIC of compounds, S. aureus COL; format: cell-based; settings: Staphylococcus aureus; COL (MRSA)
Description: as §3, §1, §4

S. aureus USA300 LAC = experiment: MIC reduction assay (antibiotic adjuvant), S. aureus USA300 LAC; format: cell-based, Staphylococcus aureus; parameters: key: A = MIC of antibiotic alone / MIC with compound
Text: as §5, §1, §6

K. aerogenes Ea-289 = experiment: MIC reduction assay (antibiotic adjuvant), K. aerogenes Ea-289; format: cell-based, Klebsiella aerogenes;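 note: compound at no more than one quarter of its own MIC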
Description: At first, MIC values of compounds were determined (Table S15, Supplementary). Next, their abilities to reduce MICs of the AcrAB-TolC substrates doxycycline (a tetracycline-class antibiotic) and erythromycin were studied (Table S16, Supplementary).
(§7) A subset of compounds, namely 7, 12–16, 19, 20, was also examined for the potential to increase the effectiveness of the antibiotics chloramphenicol, erythromycin, doxycycline, and the fluoroquinolone antibiotic norfloxacin, which all are substrates for AcrAB-TolC in K. aerogenes. In addition to strain Ea-289, the adjuvant-like effect of the compounds was investigated in strain CM-64, which also overexpresses the AcrAB-TolC efflux pump, although it has no changes in porin content, and in the Ea-289 derivatives, i.e., Ea-294 and Ea-308, which are devoid of AcrAB (Table S17, Supplementary).
as §6, §2

S. aureus R46-CC22 = experiment: MIC of compounds, S. aureus R46-CC22; format: cell-based; settings: Staphylococcus aureus; R46-CC22 (MRSA)
Description: as §3, §1, §4

S. aureus 5328 = experiment: MIC reduction assay (antibiotic adjuvant), S. aureus 5328; format: cell-based, Staphylococcus aureus
Text: as §5, §1, §6

[2] = test system: K. aerogenes CM-64 (overexpression of AcrAB-TolC); experiment: MIC of compounds, K. aerogenes CM-64; format: cell-based; settings: Klebsiella aerogenes, read-out: Minimal Inhibitory Concentration (MIC)
Text: as §7, §1, §2

[3] = read-out: MIC value/no precipitation
[4] = read-out: Minimal Inhibitory Concentration (MIC)
[5] = ampicillin, range over repetitions
[6] = doxycycline, chloramphenicol, norfloxacin, erythromycin

Question: For `NC1=N/C(=C\c2ccc(-c3ccccc3)cc2)C(=O)N1CCN1CCOCC1` [Compound 14], which MIC [1, 3] is on record?
Answer: > 250 µM

Question: And the MIC [1, 4]?
Answer: > 2000 µM

Question: What about the MIC (S. aureus R45-CC45; R45-CC45 (MRSA)) of the same compound?
Answer: ≥ 500 µM

Question: What about the “A (activity gain)” value (S. aureus MM-O021; [5]) of the same compound?
Answer: 1

Question: And the “A (activity gain)” value (S. aureus MM-O021; erythromycin)?
Answer: 1

Question: What about the MIC (S. aureus COL) of the same compound?
Answer: ≥ 500 µM

Question: What about the “A (activity gain)” value (S. aureus USA300 LAC; ampicillin) of the same compound?
Answer: 1

Question: And the “A (activity gain)” value (S. aureus USA300 LAC; ciprofloxacin)?
Answer: 1

Question: What about the “A (activity gain)” value (S. aureus USA300 LAC; erythromycin) of the same compound?
Answer: 1

Question: What about the “A (activity gain)” value (K. aerogenes Ea-289; doxycycline) of the same compound?
Answer: 1

Question: What about the “A (activity gain)” value (K. aerogenes Ea-289; [6]) of the same compound?
Answer: 1

Question: And the “A (activity gain)” value (K. aerogenes Ea-289; erythromycin)?
Answer: 1

Question: And the MIC (S. aureus R46-CC22)?
Answer: ≥ 500 µM

Question: What about the “A (activity gain)” value (S. aureus 5328; ampicillin) of the same compound?
Answer: 2

Question: What about the “A (activity gain)” value (S. aureus 5328; erythromycin, S. aureus 53284) of the same compound?
Answer: 1

Question: What about the MIC [2] of the same compound?
Answer: > 2000 µM

Question: For `NC1=N/C(=C\c2ccc(-c3ccccc3)cc2)C(=O)N1CCCN1CCOCC1` [Compound 15], which MIC [1, 3] is on record?
Answer: > 250 µM

Question: And the MIC [1, 4]?
Answer: > 2000 µM

Question: And the MIC (S. aureus R45-CC45; MRSA)?
Answer: 125 to 250 µM

Question: And the “A (AMP), gain of activity, arithmetic mean” value (S. aureus MM-O021; ampicillin, arithmetic mean of 3-4 repetitions)?
Answer: 10.7

Question: What about the “A (activity gain)” value (S. aureus MM-O021; [5]) of the same compound?
Answer: 8-16

Question: And the “A (activity gain)” value (S. aureus MM-O021; erythromycin)?
Answer: 1

Question: And the MIC (S. aureus COL)?
Answer: 250 µM

Question: What about the “A (activity gain)” value (S. aureus USA300 LAC; ampicillin) of the same compound?
Answer: 2

Question: What about the “A (activity gain)” value (S. aureus USA300 LAC; ciprofloxacin) of the same compound?
Answer: 1

Question: What about the “A (activity gain)” value (S. aureus USA300 LAC; erythromycin) of the same compound?
Answer: 1

Question: And the “A (activity gain)” value (K. aerogenes Ea-289; doxycycline)?
Answer: 1

Question: And the “A (activity gain)” value (K. aerogenes Ea-289; [6])?
Answer: 1

Question: And the “A (activity gain)” value (K. aerogenes Ea-289; erythromycin)?
Answer: 1

Question: What about the MIC (S. aureus R46-CC22) of the same compound?
Answer: 250 µM

Question: And the “A (activity gain)” value (S. aureus 5328; ampicillin)?
Answer: 2

Question: And the “A (activity gain)” value (S. aureus 5328; erythromycin, S. aureus 53284)?
Answer: 1

Question: What about the MIC [2] of the same compound?
Answer: > 2000 µM

Question: How did the MIC [1, 4] turn out when `NC1=N/C(=C\c2cccc(Oc3ccccc3)c2)C(=O)N1CCCN1CCOCC1` [Compound 16] was run?
Answer: > 2000 µM

Question: What about the MIC (S. aureus R45-CC45; R45-CC45 (MRSA)) of the same compound?
Answer: 250 µM

Question: And the “A (activity gain)” value (S. aureus MM-O021; [5])?
Answer: 1

Question: And the “A (activity gain)” value (S. aureus MM-O021; erythromycin)?
Answer: 1

Question: What about the MIC (S. aureus COL) of the same compound?
Answer: 250 µM

Question: And the “A (activity gain)” value (S. aureus USA300 LAC; ampicillin)?
Answer: 1

Question: And the “A (activity gain)” value (S. aureus USA300 LAC; ciprofloxacin)?
Answer: 1

Question: What about the “A (activity gain)” value (S. aureus USA300 LAC; erythromycin) of the same compound?
Answer: 1

Question: And the MIC (S. aureus R46-CC22)?
Answer: 250 to 500 µM

Question: What about the “A (activity gain)” value (S. aureus 5328; ampicillin) of the same compound?
Answer: 1

Question: What about the “A (activity gain)” value (S. aureus 5328; erythromycin, S. aureus 53284) of the same compound?
Answer: 1

Question: What about the MIC [2] of the same compound?
Answer: > 2000 µM

Question: With `NC1=N/C(=C\c2ccc3c(c2)Cc2ccccc2-3)C(=O)N1CCCN1CCOCC1` [Compound 19] as the compound, how does the MIC [1, 3] read?
Answer: > 250 µM

Question: And the MIC [1, 4]?
Answer: > 2000 µM

Question: What about the “A (activity gain)” value (K. aerogenes Ea-289; doxycycline) of the same compound?
Answer: 1

Question: And the “A (activity gain)” value (K. aerogenes Ea-289; [6])?
Answer: 1

Question: What about the “A (activity gain)” value (K. aerogenes Ea-289; erythromycin) of the same compound?
Answer: 1

Question: And the MIC [2]?
Answer: > 2000 µM
